Measured values: US20060058372A1, “N-Benzodioxolyl, n-benzodioxanyl and n-benzodioxepinyl arylcarboxamide derivatives and pharmaceutical compositions comprising them” (priority 2002, published 2006)

Columns and labels:
[1] = target: T1, microsomal triglyceride transfer protein (MTP) (Mesocricetus auratus, UniProt P55158); assay: Inhibition of MTP activity: transfer of [3H]-triolein from donor liposomes to biotinylated LDL (SPA); type: biochemical; conditions: MTP from golden hamster liver microsomes; incubation 18-24 hours at 37° C.; read-out: IC50 (concentration that allows a 50% inhibition of MTP)
T1 construct: The supernatant comprising the soluble MTP is dialysed; from tissue; host or cells: golden hamster liver microsomes, deoxycholate-solubilised
T1 sequence (P55158 19-895): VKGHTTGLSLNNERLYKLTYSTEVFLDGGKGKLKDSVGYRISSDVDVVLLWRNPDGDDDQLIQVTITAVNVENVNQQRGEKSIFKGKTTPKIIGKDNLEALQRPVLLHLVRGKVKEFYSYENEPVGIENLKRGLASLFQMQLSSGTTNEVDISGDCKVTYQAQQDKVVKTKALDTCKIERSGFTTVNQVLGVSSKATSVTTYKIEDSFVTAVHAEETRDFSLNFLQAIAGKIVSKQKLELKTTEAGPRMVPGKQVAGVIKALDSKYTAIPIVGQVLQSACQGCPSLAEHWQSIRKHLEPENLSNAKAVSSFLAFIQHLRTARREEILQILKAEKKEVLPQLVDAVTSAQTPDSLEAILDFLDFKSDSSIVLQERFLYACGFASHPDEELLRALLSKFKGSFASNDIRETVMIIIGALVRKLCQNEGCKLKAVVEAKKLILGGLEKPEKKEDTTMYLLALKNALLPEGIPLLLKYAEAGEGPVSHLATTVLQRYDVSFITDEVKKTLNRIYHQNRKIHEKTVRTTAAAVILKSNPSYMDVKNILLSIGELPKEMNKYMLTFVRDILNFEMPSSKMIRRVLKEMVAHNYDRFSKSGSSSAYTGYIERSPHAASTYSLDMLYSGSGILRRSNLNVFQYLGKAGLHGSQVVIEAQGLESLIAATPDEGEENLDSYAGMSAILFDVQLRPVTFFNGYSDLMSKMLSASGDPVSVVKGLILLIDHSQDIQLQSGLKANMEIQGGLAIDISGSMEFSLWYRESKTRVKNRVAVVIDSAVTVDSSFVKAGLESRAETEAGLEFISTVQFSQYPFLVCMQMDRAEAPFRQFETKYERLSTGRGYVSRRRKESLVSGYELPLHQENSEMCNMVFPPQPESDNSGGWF
T1 sequence (Q8R4U2 20-509 partner): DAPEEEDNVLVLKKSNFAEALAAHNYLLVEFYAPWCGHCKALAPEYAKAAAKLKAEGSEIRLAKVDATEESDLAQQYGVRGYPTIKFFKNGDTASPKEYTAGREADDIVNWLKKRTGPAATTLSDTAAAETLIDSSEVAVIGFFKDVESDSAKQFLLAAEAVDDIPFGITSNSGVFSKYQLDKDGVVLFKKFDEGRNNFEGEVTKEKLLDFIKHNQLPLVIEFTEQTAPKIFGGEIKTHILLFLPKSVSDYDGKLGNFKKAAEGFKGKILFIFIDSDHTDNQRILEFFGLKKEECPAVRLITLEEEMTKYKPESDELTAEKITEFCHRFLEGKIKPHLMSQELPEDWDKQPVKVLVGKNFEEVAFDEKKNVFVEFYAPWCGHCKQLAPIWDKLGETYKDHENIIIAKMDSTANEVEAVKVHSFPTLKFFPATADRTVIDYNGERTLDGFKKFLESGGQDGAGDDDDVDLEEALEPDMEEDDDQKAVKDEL
Description: Analysis of the Inhibition of MTP Activity
The inhibition of the activity of microsomal triglyceride transfer protein (MTP) was tested by using the following operating protocol.
The inhibition of MTP activity with a compound can be quantified by observing the inhibition of the transfer of a labelled triglyceride, from a donor particle to an acceptor particle, in the presence of MTP. The procedure for the preparation of MTP is based on the method by Wetterau and Zilversmit (Biochem. Biophys. Acta (1986) 875: 610). A few grams of golden hamster liver are taken and then rinsed several times in a 250 mM sucrose solution at 0° C. All the following steps proceed at +4° C. A homogenate at a concentration of 50% in 250 mM sucrose is prepared using a Teflon mill and then centrifuged for 10 minutes at 10 000×g at +4° C. The supernatant is then centrifuged at 105 000×g for 75 minutes at +4° C. The supernatant is discarded and the microsomal pellet is taken up in 3 ml (per g of starting liver) of Tris/HCl 150 mM pH 8.0. 1 ml aliquot fractions are stored at −80° C. until the time of use.
After thawing a fraction of microsomes (1 ml), 12 ml of refrigerated Tris/HCl 50 mM, KCl 50 mM, MgCl2 5 mM pH 7.4 buffers and 1.2 ml of deoxycholate (0.54% in water) are added. After incubation for 30 minutes at +4° C. with gentle agitation, the suspension is centrifuged at 105 000×g for 75 minutes. The supernatant comprising the soluble MTP is dialysed against Tris/HCl 150 mM, NaCl 40 mM, EDTA 1 mM, 0.02% sodium azide pH 7.4 buffer (5 times one litre over 2-3 days). The MTP is stored at +4° C., is stable for at least 30 days and is used in unmodified form in the test.
The donor particles (liposomes) are prepared from 208 μl of L-phosphatidylcholine at a concentration of 10 mg/ml in chloroform, and 480 μl of [3H]-triolein at a concentration of 0.5 mCi/ml in toluene. After stirring, the solution is evaporated under nitrogen, taken up in 6 ml of Tris/HCl 50 mM, KCl 50 mM, MgCl2 5 mM pH 7.4 buffer and incubated in an ultrasound bath for 30 minutes at room temperature. The liposomes are stored at +4° C. and sonicated again for 10 minutes before each use.
The acceptor particles are biotinylated low density lipoproteins (LDL-biot). These particles are supplied by the company Amersham.
The reaction mixture is prepared in untreated ½ well white plates (Corning Costar) by addition, in the following order, of: 5 μl of HEPES 50 mM, NaCl 150 mM, BSA 0.1% (w/v), 0.05% sodium azide (w/v), pH 7.4 buffer; 5 μl of liposomes; 5 μl of LDL-biot; 5 μl of test products in DMSO; 5 μl of MTP. After incubation for 18-24 hours at 37° C., the reaction is stopped by adding 100 μl of Amersham SPA (Scintillation Proximity Assay) beads coupled to streptavidin, and the radioactivity is counted using a Top Count (Packard) at least one hour later. The inhibition of the transfer of the triglycerides with a compound is reflected by a reduction in the transferred radioactivity.
The results are expressed in terms of the IC50, i.e. the concentration that allows a 50% inhibition of MTP.

[2] = test system: apo B secretion in HepG2 cells; assay: Inhibition of apo B secretion in the HepG2 human cell line (sandwich ELISA); type: cell-based; conditions: 24 hours incubation, culture supernatant, ELISA specific for human apo B, read-out: IC50 (concentration that produces a 50% inhibition of apo B secretion in the HepG2 cells)
Description: Analysis of the secretion of apo B in the HepG2 human cell line:
The activity of a compound according to the invention can be evaluated by measuring the inhibition of apo B secretion in HepG2 cells.
The HepG2 cells (ECACC—No. 85011430) are used as model in the study of the in vitro hepatic secretion of lipoproteins (Dixon J. and Ginsberg H.-J. Lipid. Res.—1993, 34:167-179).
The HepG2 cells are cultured in Dulbecco's modified Eagle's medium comprising 10% foetal calf serum (DMEM and FBS-Gibco) in 96-well plates under an atmosphere of 5% carbon dioxide for 24 hours (about 70% confluence).
The test compounds are dissolved at a concentration of 2 or 10 mM in dimethyl sulfoxide (DMSO). Serial dilutions (1:3.16) are made in DMSO and are added (1:200—Robot Multimek Beckman) to the growth medium (200 microlitres) and then finally incubated for 24 hours in the various wells containing the HepG2 cells.
The 24-hour culture supernatant diluted to 1:5 (phosphate-buffered saline: PBS comprising 1% bovine serum albumin) is tested according to a sandwich-ELISA method specific for human apo B.
The results are expressed in terms of IC50, i.e. the concentration that produces a 50% inhibition of apo B secretion in the HepG2 cells.

| IC50 [1] | IC50 [2] | SMILES |
| --- | --- | --- |
| 223 nM | 213 nM | O=C(Nc1ccc2c(c1)OC(F)(F)O2)c1cccc(Cl)c1-c1ccc(OC(F)(F)F)cc1 [Example 91] |
| 136 nM | 302 nM | Cc1cccc(-c2ccc(OC(F)(F)F)cc2)c1C(=O)Nc1ccc2c(c1)OC(F)(F)O2 [Example 49, 5-(4′-trifluoromethoxy-3-methylbiphen-2-ylcarbonylamino)-2,2-difluorobenzo[1,3]dioxole] |
| – | 197 nM | CCNC(=O)OCC1COc2ccc(NC(=O)c3ccccc3-c3ccc(C(C)C)cc3)cc2O1 (stereo not drawn) [Example 21, 7-[(4′-isopropylbiphenyl-2-carbonyl)amino]-2,3-dihydrobenzo[1,4]dioxin-2-ylmethyl ethylcarbamate] |
| 230 nM | 68 nM | CC(C)c1ccc(-c2ccccc2C(=O)Nc2ccc3c(c2)OC(F)(F)O3)cc1 [Example 33, (4′-isopropylbiphen-2-yl)-N-(2,2-difluorobenzo[1,3]dioxol-5-yl)carboxamide] |
| 270 nM | – | CCc1ccc(-c2cccc(C)c2C(=O)Nc2ccc3c(c2)OC(F)(F)O3)cc1 [Example 42, 5-(4′-ethyl-3-methylbiphen-2-ylcarbonylamino)-2,2-difluorobenzo[1,3]-dioxole] |
| 220 nM | – | O=C(Nc1ccc2c(c1)OC(F)(F)O2)c1ccccc1-c1ccc(OC(F)(F)F)cc1 [Example 40, 5-(4′-trifluoromethoxybiphen-2-ylcarbonylamino)-2,2-difluorobenzo[1,3]-dioxole] |
| 312 nM | – | CCNC(=O)OCCc1ccc(-c2c(C)cccc2C(=O)Nc2ccc3c(c2)OC(F)(F)O3)cc1 [Example 98] |
| 44 nM | 30 nM | CC(C)c1ccc(-c2c(Cl)cccc2C(=O)Nc2ccc3c(c2)OC(F)(F)O3)cc1 [Example 90] |
| – | 72 nM | O=C(Nc1ccc2c(c1)OCO2)c1ccccc1-c1ccc(OC(F)(F)F)cc1 [Example 51, 4′-trifluoromethoxybiphenyl-2-carboxylic acid benzo[1,3]dioxol-5-ylamide] |
| – | 219 nM | CC(C)Cc1ccc(-c2ccccc2C(=O)Nc2ccc3c(c2)OC(F)(F)O3)cc1 [Example 57, 4′-isobutylbiphenyl-2-carboxylic acid (2,2-difluorobenzo[1,3]dioxol-5-yl)-amide] |
| – | 129 nM | CC(C)c1ccc(-c2ccccc2C(=O)Nc2ccc3c(c2)OCO3)cc1 [Example 41, 5-(4′-isopropylbiphen-2-ylcarbonylamino)benzo[1,3]dioxole] |
| – | 288 nM | CC(C)=Cc1ccc(-c2ccccc2C(=O)Nc2ccc3c(c2)OC(F)(F)O3)cc1 [Example 69, 4′-(2-methylpropenyl)biphenyl-2-carboxylic acid (2,2-difluorobenzo[1,3]-dioxol-5-yl)amide] |
| – | 65 nM | COCC1COc2ccc(NC(=O)c3ccccc3-c3ccc(C(C)C)cc3)cc2O1 (stereo not drawn) [Example 20, 4′-isopropylbiphenyl-2-carboxylic acid (3-methoxymethyl-2,3-dihydrobenzo[1,4]dioxin-6-yl)amide] |
| – | 97 nM | CCc1ccc(-c2ccccc2C(=O)Nc2ccc3c(c2)OC(F)(F)O3)cc1 [Example 32, 4′-ethylbiphenyl-2-carboxylic acid (2,2-difluorobenzo[1,3]dioxol-5-yl)-amide] |
| 340 nM | – | CCNC(=O)OCCc1ccc(-c2ccccc2C(=O)Nc2ccc3c(c2)OC(F)(F)O3)cc1 [Example 48, 5-(4′-ethylaminocarbonyloxyethylbiphen-2-ylcarbonylamino)-2,2-difluorobenzo[1,3]dioxole] |
| 61 nM | 65 nM | Cc1cccc(C(=O)Nc2ccc3c(c2)OC(F)(F)O3)c1-c1ccc(CCOCc2ccccc2)cc1 [Example 93, 4′-(2-benzyloxyethyl)-6-methylbiphenyl-2-carboxylic acid (2,2-difluorobenzo[1,3]dioxol-5-yl)amide] |
| – | 195 nM | O=C(Nc1ccc2c(c1)OC(F)(F)O2)c1ccccc1-c1ccc(CCO)cc1 [Example 53, 4′-(2-hydroxyethyl)biphenyl-2-carboxylic acid (2,2-difluorobenzo[1,3]-dioxol-5-yl)amide] |
| 193 nM | 66 nM | COc1cccc(C(=O)Nc2ccc3c(c2)OC(F)(F)O3)c1-c1ccc(OC(F)(F)F)cc1 [Example 94] |
